# Measurements from EP0626170A2, “Stabilisation of pharmacologically active compounds in sustained release compositions” (SANDOZ LTD., priority 1993, dated 1994).
# Assay: Stability of compound A microspheres: degradation products by HPLC after manufacture, γ-irradiation and storage
# Assay type: physicochemical
# Conditions: for Increase of degradation product (%) after storage at 5°C / Increase of degradation product (%) after storage at 25°C: further increase (+) on storage; for degradation: during manufacture, sterilization and 1 month storage (5°C); for Increase of degradation product (%) after man. + γ-irrad. / Increase of degradation product (%) after manufacture: microspheres, pilot batches
# Protocol: Microparticles were produced by a modified triple-emulsion technique. Compound A pamoate salt was dispersed in a small amount of water (14 mg pamoate salt in 0.1 ml) and the dispersion was intensively homogenized using an Ultra-Turrax T25 (Janke & Kunkel IKA-Werk) into a solution (10-25%) of DL-PLG-GLU in methylene chloride (emulsion process). Alternatively, compound A pamoate salt was directly dispersed into the solution of polymer in methylene chloride (suspension process). The resulting primary water/oil (W/O) emulsion or suspension (S/O) was then intensively mixed with the external phase (in a ratio of 1:40), a gelatin containing aqueous solution. After stirring for one hour in order to evaporate the methylene chloride, the generated microspheres were collected by filtration, washed with water and dried under high vacuum at room temperature for 1 - 3 days. Storage was effected at 5°C. Sterilization was effected by γ-irridation (25 kGy required) by using nitrogen as a protecting gas.
# Compound A content and purity of the microparticles was determined by HPLC (RP-18 columns, acetonitril - tetramethyl ammonium hydroxide/water gradient) after extraction of the peptide from the microspheres using tetrahydrofuran acetate buffer, pH 4.2 (1:1).
# The generation of degradation products of compound A during the manufacture process, γ-irradiation and subsequent strorage at various temperatures is represented in Table 2. Potential stability problems arose with the acetate and the phosphate salts of compound A: during manufacture, sterilization and 1 month storage (5°C) 5 - 10% degradation occurred. These problems could be circumvented by the use of the pamoate. After manufacture, sterilization and three months of storage even at 25°C there was an increase of degradation products of less than 1.5%, more particularly of less than 0.5% after manufacture, less than 1.0% from the beginning of manufacture to just after irradiation and , inclusive of storage for 3 months at 25°C less than 1.5%.
Structure (SMILES),Increase of degradation product (%) after storage at 5°C (1 month),Increase of degradation product (%) after storage at 25°C (1 month),degradation,Increase of degradation product (%) after man. + γ-irrad.,Increase of degradation product (%) after manufacture,Increase of degradation product (%) after storage at 5°C (3 months),Increase of degradation product (%) after storage at 25°C (3 months),increase of degradation products (after manufacture),"increase of degradation products (after manufacture, sterilization and three months of storage at 25°C)",increase of degradation products (from the beginning of manufacture to just after irradiation)
"CC(=O)N[C@H](Cc1ccc2ccccc2c1)C(=O)N[C@H](Cc1ccc(Cl)cc1)C(=O)N[C@H](Cc1c[nH]c2ccccc12)C(=O)N[C@@H](CO)C(=O)N[C@@H](Cc1ccc(O)cc1)C(=O)N[C@H](CCCCNCC(O)CO)C(=O)N[C@@H](CC(C)C)C(=O)N[C@@H](CCCCNCC(O)CO)C(=O)N1CCC[C@H]1C(=O)N[C@H](C)C(N)=O (single isomer, unassigned) [Compound A acetate]",+ 0.6%,+ 1.3%,5 - 10%,4.2 - 8.3%,0.4 - 4.2%,–,–,–,–,–
"CC(=O)N[C@H](Cc1ccc2ccccc2c1)C(=O)N[C@H](Cc1ccc(Cl)cc1)C(=O)N[C@H](Cc1c[nH]c2ccccc12)C(=O)N[C@@H](CO)C(=O)N[C@@H](Cc1ccc(O)cc1)C(=O)N[C@H](CCCCNCC(O)CO)C(=O)N[C@@H](CC(C)C)C(=O)N[C@@H](CCCCNCC(O)CO)C(=O)N1CCC[C@H]1C(=O)N[C@H](C)C(N)=O (single isomer, unassigned) [Compound A pamoate]",–,–,–,0.4 - 0.8%,0.1 - 0.4%,+ 0.4%,+ 0.6%,less than 0.5%,less than 1.5%,less than 1.0%
"CC(=O)N[C@H](Cc1ccc2ccccc2c1)C(=O)N[C@H](Cc1ccc(Cl)cc1)C(=O)N[C@H](Cc1c[nH]c2ccccc12)C(=O)N[C@@H](CO)C(=O)N[C@@H](Cc1ccc(O)cc1)C(=O)N[C@H](CCCCNCC(O)CO)C(=O)N[C@@H](CC(C)C)C(=O)N[C@@H](CCCCNCC(O)CO)C(=O)N1CCC[C@H]1C(=O)N[C@H](C)C(N)=O (single isomer, unassigned) [Compound A phosphate]",+ 0.7%,+ 1.6%,5 - 10%,7.0 - 9.0%,1.2 - 3.5%,–,–,–,–,–
